The source of these data is BindingDB's records for doi:10.7270/Q2KH0KWR (Burnham Center For Chemical Genomics, 2012).

This experiment concerns the target T1, Tyrosine-protein phosphatase non-receptor type 5 (Homo sapiens, UniProt P54829).
T1 sequence (P54829 whole entry): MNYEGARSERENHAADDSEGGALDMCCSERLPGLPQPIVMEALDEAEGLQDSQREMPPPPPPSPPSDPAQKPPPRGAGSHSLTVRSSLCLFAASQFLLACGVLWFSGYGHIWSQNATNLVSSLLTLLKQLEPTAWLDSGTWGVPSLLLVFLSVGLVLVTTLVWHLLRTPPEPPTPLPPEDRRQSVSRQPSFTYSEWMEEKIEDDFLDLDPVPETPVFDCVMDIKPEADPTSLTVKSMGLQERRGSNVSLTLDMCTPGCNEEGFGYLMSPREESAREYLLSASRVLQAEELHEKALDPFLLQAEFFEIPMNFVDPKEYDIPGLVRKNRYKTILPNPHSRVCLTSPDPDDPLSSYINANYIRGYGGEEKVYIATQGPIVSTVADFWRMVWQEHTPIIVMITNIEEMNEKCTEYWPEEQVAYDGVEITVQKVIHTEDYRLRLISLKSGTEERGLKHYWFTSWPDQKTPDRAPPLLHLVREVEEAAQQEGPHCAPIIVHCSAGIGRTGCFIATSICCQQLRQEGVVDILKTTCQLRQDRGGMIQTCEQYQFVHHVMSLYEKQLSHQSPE
Nature of the experiment: PTPN5 inhibition measured colorimetrically – biochemical, colorimetric absorbance, orthogonal assay for STEP inhibitor project, dose response (AID 624207).

Where [1] appears, read: inactive by the depositor's call.

The term IC50 denotes the concentration needed to halve the response being measured. Read a high IC50 as weaker potency in that assay. `COc1ccc2cc3c(N)nn(C(=O)c4cccc(F)c4)c3nc2c1` [MLS000731294] gave a concentration for half-maximal inhibition (IC50) above 80 µM.
Compound `N#CNc1nc(O)cc(=O)[nH]1` [MLS000737363] had a concentration for half-maximal inhibition (IC50) under setting [1] of 40 µM.
On the same count and under the same terms, under `Cc1cc(C)c2nc(-c3ccccn3)cc(C(=O)Nc3ccc(S(=O)(=O)Nc4onc(C)c4C)cc3)c2c1` [MLS000862518] stands 42 µM.
Turning to `O=C(Nc1cc([N+](=O)[O-])ccc1O)c1cccc(C(=O)Nc2cc([N+](=O)[O-])ccc2O)c1` [MLS001008494], the half-inhibitory concentration (IC50) came to 7.05 µM.
`CC(=O)N1CCOc2ccc(S(=O)(=O)NCc3ccc(F)cc3)cc21` [MLS001117284] gave a half-inhibitory concentration (IC50) above 80 µM.
As to `CC(C(=O)Nc1ccc(O)cc1C(=O)O)N1C(=O)/C(=C\c2cccs2)SC1=S` (configuration not stated) [MLS001157883], the IC50 stood at 15.7 µM. That is a double-digit micromolar value.
In the case of `CC(C)(C)C(=O)Nc1ccc(C(=O)Nc2cccc(Oc3ccc(C(=O)O)c(C(=O)O)c3)c2)cc1` [MLS001181252], the IC50 under setting [1] was 25.2 µM. This counts as double-digit micromolar.
On the same count and under the same terms, as for `NS(=O)(=O)c1ccc(NC(=S)N2CCC(Cc3ccccc3)CC2)cc1` [MLS001196239], the figure is 76 µM; as for `Cc1c(CC(=O)O)c(=O)oc2c(C)c(OCc3ccc(F)cc3Cl)ccc12` [MLS001213411], 23.8 µM; as for `Cc1c(CC(=O)NCCCCCC(=O)O)c(=O)oc2c(C)c3oc4c(c3cc12)CCCC4` [MLS001214831], 32.1 µM.
Compound `CCOc1ccc(/C=N/NC(=O)c2cc3c(OC)cccc3[nH]2)cc1` [MLS001216500] displayed an IC50 under setting [1] of 28.5 µM.
On the same count and under the same terms, as for `CC(=NNC(=O)c1ccccc1O)c1ccc(NC(=O)Cc2ccccc2)cc1` [MLS001224813], the figure is 29.4 µM.
Turning to `COc1ccc(-c2ccc(NC(=O)c3ccc(Br)o3)cc2)nn1` [MLS001236653], the concentration for half-maximal inhibition (IC50) was above 80 µM.
For the compound `CSc1ccc(CN=Nc2ccc(S(=O)(=O)Nc3ccccc3C(=O)O)cc2[N+](=O)[O-])cc1` [MLS002245633], inhibition was half-maximal at 4.99 µM (IC50). That is a single-digit micromolar value.
`Sc1ncnc2c1ncn2-c1ccc(Cl)cc1` [MLS002638664] displayed an IC50 under setting [1] of 64.8 µM.
`O=C(N/N=C/C1C=CC=CC1=O)c1cccc([N+](=O)[O-])c1` (configuration not stated) [MLS002667988] yielded an IC50 of 15.8 µM.
On the same count and under the same terms, as for `O=C(O)Cc1cccc(O)c(=O)c1C(=O)O` [MLS002703575], the figure is above 80 µM; as for `O=C(Nc1cccc2c(=O)[nH][nH]c(=O)c12)c1ccc([N+](=O)[O-])cc1` [MLS003171605], above 80 µM.
Compound `S=C(c1cn(CCOc2ccccc2)c2ccccc12)N1CCCC1` [MLS-0109562.0001] displayed an IC50 under setting [1] of 41.3 µM.
`CCOC(=O)c1sc2nc3c(SCC(=O)O)cc(C(=O)c4ccccc4O)cn3c(=O)c2c1C` [MLS-0266851.0001]: the concentration for half-maximal inhibition (IC50) is above 80 µM.
In turn, `NC(=NOC(=O)c1cccc2ccccc12)c1cccc([N+](=O)[O-])c1` [N'-(1-naphthoyloxy)-3-nitrobenzenecarboximidamide] showed a half-inhibitory concentration (IC50) above 80 µM.
Under setting [1], `COc1cc(Cl)ccc1N=C(S)N(CCCN1CCOCC1)Cc1cn(C)c2ccccc12` [N'-(4-chloro-2-methoxyphenyl)-N-[(1-methyl-1H-indol-3-yl)methyl]-N-(3-morpholin-4-ylpropyl)thiourea] showed an IC50 of 34.4 µM.
Still for that read-out and setting: as for `COc1ccc(Cl)cc1N=C(S)N(CCCN1CCOCC1)Cc1cn(C)c2ccccc12` [N'-(5-chloro-2-methoxyphenyl)-N-[(1-methyl-1H-indol-3-yl)methyl]-N-(3-morpholin-4-ylpropyl)thiourea], the figure is 36.9 µM.
Consider `COc1cc(Cl)cc(C=NNC(=O)c2ccc3c(c2)OCO3)c1O` [N'-[(E)-(3-chloro-5-methoxy-6-oxo-1-cyclohexa-2,4-dienylidene)methyl]-1,3-benzodioxole-5-carbohydrazide], for which the half-maximal inhibitory concentration (IC50) was 23.3 µM. In other words, the double-digit micromolar range.
`COc1cccc(-c2cc(C(=O)Nc3nc4ccccc4s3)c3ccccc3n2)c1` [N-(1,3-benzothiazol-2-yl)-2-(3-methoxyphenyl)-4-quinolinecarboxamide] registered a half-inhibitory concentration (IC50) under setting [1] of 78.3 µM.
Still for that read-out and setting: under `COc1ccc(NC(=S)N2CCC(N(C)CC3CCCO3)CC2)cc1Cl` (configuration not stated) [N-(3-chloranyl-4-methoxy-phenyl)-4-[methyl(oxolan-2-ylmethyl)amino]piperidine-1-carbothioamide] stands 40.3 µM.
For the compound `Cn1cc(CC(=O)Nc2cccc(C#N)c2)c2ccccc21` [N-(3-cyanophenyl)-2-(1-methyl-1H-indol-3-yl)acetamide], the IC50 was above 80 µM.
With `CCCCC(=O)Nc1ccc(C(=O)NNC(=O)c2ccc(C)c(Br)c2)cc1` [N-(4-{[2-(3-bromo-4-methylbenzoyl)hydrazino]carbonyl}phenyl)pentanamide], under setting [1], the 50% inhibitory concentration (IC50) stood at 53.8 µM.
`CCOc1ccc(CCNC(=O)CS(=O)(=O)Cc2nc(-c3ccc(OC)cc3)oc2C)cc1` [N-[2-(4-ethoxyphenyl)ethyl]-2-[[2-(4-methoxyphenyl)-5-methyl-1,3-oxazol-4-yl]methylsulfonyl]ethanamide] returned an IC50 above 80 µM.
Still for that read-out and setting: as for `COc1ccccc1NS(=O)(=O)c1cc(NC(=O)c2sccc2C)ccc1N1CCCC1` [N-[3-[(2-methoxyphenyl)sulfamoyl]-4-(1-pyrrolidinyl)phenyl]-3-methyl-2-thiophenecarboxamide], the figure is 6.95 µM.
`CN1CCN(C(S)=Nc2ccc(S(N)(=O)=O)cc2)CC1` [N-[4-(aminosulfonyl)phenyl]-4-methyl-1-piperazinecarbothioamide]: under setting [1], half-maximal inhibition (IC50) was put at 41.5 µM. That is a double-digit micromolar value.
Regarding `CCCCN(CC)Cc1ccc(CN=C(S)Nc2c(C)cc(C)cc2C)o1` [N-[(5-{[butyl(ethyl)amino]methyl}-2-furyl)methyl]-N'-mesitylthiourea], the half-inhibitory concentration (IC50) is above 80 µM.
Under setting [1], `O=C(N/N=C/c1cccc(Br)c1)c1ccc(N2CCCC2=O)cc1` [N-[(E)-(3-bromophenyl)methylideneamino]-4-(2-oxidanylidenepyrrolidin-1-yl)benzamide] yielded an IC50 of 22.9 µM.
Turning to `O=C(N/N=C/c1ccc(Br)s1)c1cccc([N+](=O)[O-])c1` [N-[(E)-(5-bromanylthiophen-2-yl)methylideneamino]-3-nitro-benzamide], the IC50 was 14.9 µM.
`O=C(COc1ccc(/C=N/NC(=O)c2ccccc2O)cc1)Nc1ccccc1` [N-[(E)-[4-(2-anilino-2-oxoethoxy)phenyl]methylideneamino]-2-hydroxybenzamide] had an IC50 under setting [1] of 23.6 µM.
`O=C(COc1ccc([CH+][N-]NC(=O)c2ccncc2)cc1)Nc1ccc([N+](=O)[O-])cc1` [N-[(E)-[4-[2-[(4-nitrophenyl)amino]-2-oxidanylidene-ethoxy]phenyl]methylideneamino]pyridine-4-carboxamide] returned an IC50 above 80 µM.
`O=C(N/N=C/c1ccoc1)c1cc(O)cc(O)c1` [N-[(E)-furan-3-ylmethylideneamino]-3,5-dihydroxybenzamide] registered a half-maximal inhibitory concentration (IC50) above 80 µM.
Same read-out and setting: as for `Cc1cc(C(=O)NN=Cc2ccc(-c3ccc([N+](=O)[O-])cc3Cl)o2)[nH]n1` [N-[[5-(2-chloro-4-nitrophenyl)furan-2-yl]methylideneamino]-5-methyl-1H-pyrazole-3-carboxamide], the figure is above 80 µM.
Take `O=S(=O)(Nc1ccccc1)c1cccc2nsnc12` [N-phenyl-2,1,3-benzothiadiazole-4-sulfonamide]: the 50% inhibitory concentration (IC50) was above 80 µM.
Still for that read-out and setting: under `COc1ccc(OC)c(-n2c(O)c3o[nH]c(-c4ccccc4Cl)c-3c2=O)c1` [SMR000046218] stands above 80 µM.
Under setting [1], `CCN1CCN(C(=S)c2ccc(Cl)c(Cl)c2)CC1` [SMR000143195] returned a 50% inhibitory concentration (IC50) of 39.3 µM.
The same measure, in the same setting: under `O=C(O)CCC(/N=N/c1ccc(S(=O)(=O)N2CCCC2)cc1[N+](=O)[O-])c1cccs1` (configuration not stated) [SMR000151450] stands 32.8 µM.
